PubChem BioAssay AID1919016 (Molecular Pharmacology Branch, DTP, NCI, 2023)

Tested on: NCI-H196 complex spheroid growth, percent test/control
Experiment: Anticancer human tumor NCI-H196 cell line growth inhibition [AhR];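 also: seven days of drug exposure starting three days after plating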;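 as to viability, T/C: 100% = DMSO vehicle control wells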
Details: for IC50: curve of first compound; for viability, T/C: stronger effect = lower value
Source text: Multicellular complex tumor spheroid response to aryl hydrocarbon receptor antagonists in combination with a variety of drugs and investigational agents in selected tumor cell lines
The current study was undertaken to assess response to aryl hydrocarbon receptor antagonists in combination with standard-of-care drugs and investigational agents in solid tumor complex spheroid models. Complex spheroids include a stromal component modeled by human endothelial cells (HUVEC) and fibroblasts modeled by human mesenchymal stem cells (MSCs). The concentration ranges selected for each drug and investigational agent were based upon clinically achievable concentrations if the clinical Cmax of the agent was known.
Compounds. The drugs and investigational agents: BAY 2416964 (NSC825713), GNF351 (NSC835774), CH-223191 (NSC835775), CPI-455 (NSC825282), aza-TdCyd (NSC777586), decitabine (NSC127716), belinostat (NSC758774), entinostat (NSC756642), pevonedistat (NSC761192), tazemetostat (NSC777109), talazoparib (NSC765396), olaparib (NSC753686), selinexor (NSC780203), nedisertib (M3814, NSC802822), bortezomib (NSC756655), venetoclax (NSC766270), doxorubicin (NSC123127), elimusertib (BAY189344, NSC800525), ceralasertib (AZD6738, NSC777638), TAK-243 (NSC785004), alisertib (NSC759677), etoposide (NSC141540), topotecan (NSC609699), eribulin (NSC707389), gemcitabine (NSC613327), carboplatin (NSC241240), cisplatin (NSC119875), and SN-38 (NSC673596) were obtained from the National Cancer Institute (NCI) Developmental Therapeutics Program Chemical Repository (32). The FDA-approved anticancer drug set is available from the Developmental Therapeutics Program at https://dtp.cancer.gov/organization/dscb/obtaining/available plates.htm. […] The stock solutions were prepared in dimethyl sulfoxide (DMSO, Sigma-Aldrich, St. Louis, MO, cat. D2650), except for the platinum compounds which were prepared in saline (Quality Biological, Gaithersburg, MD, cat. 114-055-101), at 800-fold the tested concentration and stored at -70 degrees C prior to their use. All drugs and investigational agents were tested over a range starting from a high concentration at or near the clinical Cmax and decreasing in half-log increments. If the clinical Cmax for an agent had not been determined, the highest concentration tested was 10 microM (Table 1).
Cell Culture. All cells were maintained in an incubator at 37 degrees C and 5% CO2 with 95% humidity. The PDC lines were cultured according to standard operating procedures established by the NCI PDMR (https://pdmr.cancer.gov). Briefly, all PDCs were thawed and cultured in Matrigel-coated flasks prepared with a working solution of 1X Ham's F-12 nutrient mix, without supplementation (Invitrogen, Waltham, MA, cat. 11765054), 100 U/mL penicillin-streptomycin (Invitrogen, cat. 15140122), and 2.5% Matrigel (Corning Inc., Corning, NY, cat. 354248) for the first three passages. All PDCs were cultured in complete DMEM/F-12 media containing advanced DMEM/F-12 (Invitrogen, cat. 12634028), 4.9% defined fetal bovine serum, heat inactivated (HyClone Laboratories Inc., Logan, UT, cat. SH30070.03HI), 389 ng/mL hydrocortisone (Sigma-Aldrich, cat. H4001), 9.7 ng/mL human EGF recombinant protein (Invitrogen, cat. PHG0313), 23.4 microg/mL adenine (Sigma-Aldrich, cat. A2786), 97.3 U/mL penicillin-streptomycin (Invitrogen, cat. 15140122), 1.9 mM L-glutamine (Invitrogen, cat. 25030081), and 9.7 microM Y-27632 dihydrochloride (Tocris Bioscience, Bristol, United Kingdom, cat. 1254). The PDCs were cultured in complete DMEM/F12 media without 10 microM Y-27632 dihydrochloride for at least two passages prior to the screen. The established cell lines NCI-H1341 and […] were cultured in DMEM/F-12, HEPES (Invitrogen, cat. 11330032), 5% defined fetal bovine serum (HyClone Laboratories Inc., cat. SH30070.03), ITS premix universal culture supplement [insulin (5 microg/mL), transferrin (5 microg/mL), and selenious acid (5 ng/mL)] […]

[1] = second compound 0.1 µM, first compound 0.0316 µM
[2] = second compound 0.1 µM, first compound 0.1 µM
[3] = second compound 0.1 µM, first compound 0.316 µM
[4] = second compound 0.1 µM, first compound 1 µM
[5] = second compound 0.1 µM, first compound 3.16 µM
[6] = second compound 0.1 µM, first compound 10 µM
[7] = second compound 0.316 µM, first compound 0.0316 µM
[8] = second compound 0.316 µM, first compound 0.1 µM
[9] = second compound 0.316 µM, first compound 0.316 µM
[10] = second compound 0.316 µM, first compound 1 µM
[11] = second compound 0.316 µM, first compound 3.16 µM
[12] = second compound 0.316 µM, first compound 10 µM
[13] = second compound 1 µM, first compound 0.0316 µM
[14] = second compound 1 µM, first compound 0.1 µM
[15] = second compound 1 µM, first compound 0.316 µM
[16] = second compound 1 µM, first compound 1 µM
[17] = second compound 1 µM, first compound 3.16 µM
[18] = second compound 1 µM, first compound 10 µM
[19] = second compound 3.16 µM, first compound 0.0316 µM
[20] = second compound 3.16 µM, first compound 0.1 µM
[21] = second compound 3.16 µM, first compound 0.316 µM
[22] = second compound 3.16 µM, first compound 1 µM
[23] = second compound 3.16 µM, first compound 3.16 µM
[24] = second compound 3.16 µM, first compound 10 µM
[25] = second compound 10 µM, first compound 0.0316 µM
[26] = second compound 10 µM, first compound 0.1 µM
[27] = second compound 10 µM, first compound 0.316 µM
[28] = second compound 10 µM, first compound 1 µM
[29] = second compound 10 µM, first compound 3.16 µM
[30] = second compound 10 µM, first compound 10 µM

CCc1c2c(nc3ccc(O)cc13)-c1cc3c(c(=O)n1C2)COC(=O)[C@]3(O)CC + CC(CO)NC(=O)c1cc(-c2ccc(Cl)cc2)nn(-c2cnn(C)c2)c1=O
IC50 (second compound 0.1 µM): > 0.3 µM | IC50 (second compound 0.316 µM): > 0.3 µM | IC50 (second compound 1 µM): > 0.3 µM | IC50 (second compound 3.16 µM): > 0.3 µM | IC50 (second compound 10 µM): > 0.3 µM | viability, T/C (second compound 0.1 µM, first compound 0.000949 µM): 98% | viability, T/C (second compound 0.1 µM, first compound 0.003 µM): 104% | viability, T/C (second compound 0.1 µM, first compound 0.00949 µM): 107% | viability, T/C (second compound 0.1 µM, first compound 0.03 µM): 105% | viability, T/C (second compound 0.1 µM, first compound 0.0949 µM): 103% | viability, T/C (second compound 0.1 µM, first compound 0.3 µM): 92.9% | viability, T/C (second compound 0.316 µM, first compound 0.000949 µM): 108% | viability, T/C (second compound 0.316 µM, first compound 0.003 µM): 116% | viability, T/C (second compound 0.316 µM, first compound 0.00949 µM): 113% | viability, T/C (second compound 0.316 µM, first compound 0.03 µM): 113% | viability, T/C (second compound 0.316 µM, first compound 0.0949 µM): 108% | viability, T/C (second compound 0.316 µM, first compound 0.3 µM): 92.2% | viability, T/C (second compound 1 µM, first compound 0.000949 µM): 108% | viability, T/C (second compound 1 µM, first compound 0.003 µM): 115% | viability, T/C (second compound 1 µM, first compound 0.00949 µM): 117% | viability, T/C (second compound 1 µM, first compound 0.03 µM): 98.4% | viability, T/C (second compound 1 µM, first compound 0.0949 µM): 101% | viability, T/C (second compound 1 µM, first compound 0.3 µM): 81.8% | viability, T/C (second compound 3.16 µM, first compound 0.000949 µM): 112% | viability, T/C (second compound 3.16 µM, first compound 0.003 µM): 110% | viability, T/C (second compound 3.16 µM, first compound 0.00949 µM): 105% | viability, T/C (second compound 3.16 µM, first compound 0.03 µM): 104% | viability, T/C (second compound 3.16 µM, first compound 0.0949 µM): 101% | viability, T/C (second compound 3.16 µM, first compound 0.3 µM): 85.3% | viability, T/C (second compound 10 µM, first compound 0.000949 µM): 111% | viability, T/C (second compound 10 µM, first compound 0.003 µM): 111% | viability, T/C (second compound 10 µM, first compound 0.00949 µM): 112% | viability, T/C (second compound 10 µM, first compound 0.03 µM): 107% | viability, T/C (second compound 10 µM, first compound 0.0949 µM): 107% | viability, T/C (second compound 10 µM, first compound 0.3 µM): 87.7%

Nc1ccccc1NC(=O)c1ccc(CNC(=O)OCc2cccnc2)cc1 + CC(CO)NC(=O)c1cc(-c2ccc(Cl)cc2)nn(-c2cnn(C)c2)c1=O
IC50 (second compound 0.1 µM): 0.509 µM | IC50 (second compound 0.316 µM): 0.519 µM | IC50 (second compound 1 µM): 0.523 µM | IC50 (second compound 3.16 µM): 0.596 µM | IC50 (second compound 10 µM): 0.593 µM | viability, T/C [1]: 80.5% | viability, T/C [2]: 81.1% | viability, T/C [3]: 62.6% | viability, T/C [4]: 29.9% | viability, T/C [5]: 15.4% | viability, T/C [6]: 0.46% | viability, T/C [7]: 87.5% | viability, T/C [8]: 81.5% | viability, T/C [9]: 61.6% | viability, T/C [10]: 33.7% | viability, T/C [11]: 12.8% | viability, T/C [12]: 0.5% | viability, T/C [13]: 87.9% | viability, T/C [14]: 79.3% | viability, T/C [15]: 63.2% | viability, T/C [16]: 32.9% | viability, T/C [17]: 14.5% | viability, T/C [18]: 0.63% | viability, T/C [19]: 85.6% | viability, T/C [20]: 89.4% | viability, T/C [21]: 65.3% | viability, T/C [22]: 34.7% | viability, T/C [23]: 15.3% | viability, T/C [24]: 0.42% | viability, T/C [25]: 91.7% | viability, T/C [26]: 87.5% | viability, T/C [27]: 74.1% | viability, T/C [28]: 29.2% | viability, T/C [29]: 12.9% | viability, T/C [30]: 0.86%

O=C(c1cc(Cc2n[nH]c(=O)c3ccccc23)ccc1F)N1CCN(C(=O)C2CC2)CC1 + CC(CO)NC(=O)c1cc(-c2ccc(Cl)cc2)nn(-c2cnn(C)c2)c1=O
IC50 (second compound 0.1 µM): > 10 µM | IC50 (second compound 0.316 µM): > 10 µM | IC50 (second compound 1 µM): > 10 µM | IC50 (second compound 3.16 µM): > 10 µM | IC50 (second compound 10 µM): > 10 µM | viability, T/C [1]: 109% | viability, T/C [2]: 114% | viability, T/C [3]: 99.8% | viability, T/C [4]: 93.3% | viability, T/C [5]: 106% | viability, T/C [6]: 96.3% | viability, T/C [7]: 103% | viability, T/C [8]: 109% | viability, T/C [9]: 103% | viability, T/C [10]: 102% | viability, T/C [11]: 105% | viability, T/C [12]: 96.8% | viability, T/C [13]: 105% | viability, T/C [14]: 102% | viability, T/C [15]: 99.7% | viability, T/C [16]: 102% | viability, T/C [17]: 102% | viability, T/C [18]: 98.7% | viability, T/C [19]: 101% | viability, T/C [20]: 103% | viability, T/C [21]: 107% | viability, T/C [22]: 98.9% | viability, T/C [23]: 109% | viability, T/C [24]: 94.9% | viability, T/C [25]: 113% | viability, T/C [26]: 103% | viability, T/C [27]: 109% | viability, T/C [28]: 109% | viability, T/C [29]: 109% | viability, T/C [30]: 102%
